Data set [1] is described as follows: Microsomal stability assay, human liver microsome. The format is in vitro ADME. Conditions: liver microsomes, pH 7.4, 0.2 mg/mL, 1 μM compound, 37° C., read-out: Clint HLM. The procedure:
(§1) Incubation mixture contained 0.2 mg/mL microsomes, 1 mmol NADPH, and test compound at 1 μM in 100 mmol potassium phosphate buffer at pH 7.4. The mixtures were incubated at 37° C. for 5, 15, and 30 minutes. Aliquots of the mixtures were taken at 0, 5, 15 and 30 minutes and quenched with chilled Acetonitrile:Methanol (50:50) containing internal standard. Following completion of incubation, samples were centrifuged at 4,000 rpm at 4° C. The supernatant was analyzed by LC-MS/MS and half-life, as well as intrinsic clearance (Clint), were calculated.

The target of another data set is CHK-1 kinase (Homo sapiens (Human), UniProt O14757). In words: CHK-1 % inhibition kinase assay (TR-FRET). Conditions: ATP 15 μM; for inhibition at 0.03 µM / inhibition at 0.3 µM: CHK1 enzyme; for inhibition at 0.03 µM: compound 30 nM; for inhibition at 0.3 µM: compound 300 nM; for IC50: TR-FRET, read-out: CHK1 IC50. The format is biochemical. How it is done: Inhibition of CHK-1 kinase or percent inhibition at defined concentrations was determined by TR-FRET assay. Kinase reactions were performed in a 20 μL volume in low-volume 384-well plates (Cat #Corning 4511). The concentration of substrate Fluorescein-CREBtide was maintained at 0.2 μM in the assay, and the kinase reaction buffer consisted of 50 mM HEPES pH 7.5, 0.01% BRIJ-35, 10 mM MgCl2, 1 mM EGTA. Serially diluted compounds (3-fold) in DMSO (0.5% in final reaction) were incubated with cocktail of CHK-1 kinase (6 nM; Cat #PR3959B, ThermoFisher), Fluorescein-CREBtide (0.2 μM; Cat #PV3508, ThermoFisher), ATP (15 μM; Cat #A1852, Sigma), and kinase reaction buffer. After 1 hour kinase reactions at room temperature, 10 μL of Detection mix (8 nM LanthaScreen® Tb-CREB [pSer133] antibody, Cat #PV3542, ThermoFisher with 20 mM EDTA in TR-FRET Buffer, Cat #PV3574, ThermoFisher) was added, and the plate was read with a plate reader (Synergy™ NEO; Biotek) for TR-FRET.
CHK-1 kinase, sequence (O14757 whole entry): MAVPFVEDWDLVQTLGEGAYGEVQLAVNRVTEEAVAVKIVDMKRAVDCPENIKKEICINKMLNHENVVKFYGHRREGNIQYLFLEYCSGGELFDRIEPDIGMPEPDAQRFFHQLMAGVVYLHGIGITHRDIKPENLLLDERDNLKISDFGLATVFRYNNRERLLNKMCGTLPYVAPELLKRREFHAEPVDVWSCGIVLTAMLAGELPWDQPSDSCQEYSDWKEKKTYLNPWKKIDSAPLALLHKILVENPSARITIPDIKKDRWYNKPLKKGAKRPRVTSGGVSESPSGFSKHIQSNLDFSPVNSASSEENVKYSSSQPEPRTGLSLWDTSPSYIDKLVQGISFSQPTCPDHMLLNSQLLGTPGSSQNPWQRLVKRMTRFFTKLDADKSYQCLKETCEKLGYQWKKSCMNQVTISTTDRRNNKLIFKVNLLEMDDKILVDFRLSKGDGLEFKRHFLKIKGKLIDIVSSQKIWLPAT
The resulting TR-FRET emission ratio was used to calculate the percent inhibition by normalizing to the control using the following formula: […]

A short description of data set [2]: Kinetic solubility assay (nephelometry). The following applies: PBS, 37 °C, pH 7.4, aqueous buffer, kinetic from dmso stock.
Procedure: Test articles were serially diluted in DMSO from concentration range of 10 mM to 0.078 mM in 96 well v-bottom dilution plate (#3363, Corning). 1 μL of test article from each well was transferred to 96 well flat bottom clear plates (#655101, Greiner) containing 99 μL of PBS at pH-7.4, which makes the test drug final concentration range from 100 μM to 0.78 μM. Samples were incubated for 1 hour at 37° C. followed by measurement of light scattering at 625 nm with a laser based micro plate Nephelometer (Nephlostar Plus, BMG Labtech). Solubility concentration (μM) was then calculated by segmental regression with Neplometer as Readout.
A short description of data set [3]: Microsomal stability assay, rat liver microsome. In kind it is in vitro ADME. The following applies: liver microsomes, pH 7.4, 0.2 mg/mL, 1 μM compound, 37° C., read-out: Clint RLM. The procedure: as §1
The nature of data set [4]: Microsomal stability assay, mouse liver microsome. In kind it is in vitro ADME. The following applies: liver microsomes, pH 7.4, 0.2 mg/mL, 1 μM compound, 37° C., read-out: Clint MLM. How it is done: as §1

Structures are written as SMILES. ≈ marks a conversion by molar mass, not a printed value.

For the compound `N#Cc1cnc(Nc2cc(-c3ccccc3OC3CNC3)on2)cn1` [Compound 1.4, 5-(5-(2-(azetidin-3-yloxy)phenyl)isoxazol-3-ylamino) pyrazine-2-carbonitrile], in data set [1], the microsomal CLint at 1 μM came to 52 µL/min/mg. Further, on CHK-1 kinase, the inhibition at 0.03 µM is 7%, the inhibition at 0.3 µM was 54% and the IC50 worked out at 86.4 nM. Also, the kinetic solubility at 1 h in data set [2] was 100 µM (≈ 33.4 µg/mL). Moreover, in data set [3], the microsomal CLint at 1 μM was 27 µL/min/mg. Also, the microsomal CLint at 1 μM in data set [4] was 66 µL/min/mg.
Consider `N#Cc1cnc(Nc2cc(-c3ccccc3OCCCN)on2)cn1` [Compound 1.5, 5-(5-(2-(3-aminopropoxy)phenyl)isoxazol-3-ylamino) pyrazine-2-carbonitrile], for which, in data set [1], the microsomal CLint at 1 μM worked out at 78 µL/min/mg. At CHK-1 kinase, the inhibition at 0.03 µM amounted to 63%, the inhibition at 0.3 µM was 89% and the IC50 came out at 7.82 nM. For the same compound, the kinetic solubility at 1 h in data set [2] was found to be 41.8 µM (≈ 14.1 µg/mL). The microsomal CLint at 1 μM in data set [3] is 70 µL/min/mg. Also, in data set [4], the microsomal CLint at 1 μM was 77 µL/min/mg.
`N#Cc1cnc(Nc2cc(-c3ccccc3OCCCCN)on2)cn1` [Compound 1.6, 5-(5-(2-(4-aminobutoxy)phenyl)isoxazol-3-ylamino) pyrazine-2-carbonitrile]: the microsomal CLint at 1 μM came to 63 µL/min/mg in data set [1], 118 µL/min/mg in data set [3] and 63 µL/min/mg in data set [4]. In addition, the inhibition at 0.03 µM at CHK-1 kinase was 71%. Further, the inhibition at 0.3 µM at CHK-1 kinase is 91%. Besides, on CHK-1 kinase, the half-maximal inhibitory concentration (IC50) was 12.3 nM. This compound gave a kinetic solubility at 1 h in data set [2] of 42.8 µM (≈ 15 µg/mL).
Consider `N#Cc1cnc(Nc2cc(-c3ccccc3OCCN)on2)cn1` [Compound 1.7, 5-(5-(2-(2-aminoethoxy)phenyl)isoxazol-3-ylamino) pyrazine-2-carbonitrile], for which the microsomal CLint at 1 μM in data set [1] was 75 µL/min/mg; in data set [3], 118 µL/min/mg; in data set [4], 114 µL/min/mg. For the same compound, the inhibition at 0.03 µM at CHK-1 kinase turned out to be 36%. The inhibition at 0.3 µM at CHK-1 kinase worked out at 82%. This compound also returned a solubility (kinetic) at 1 h in data set [2] of 39.2 µM (≈ 12.6 µg/mL).
Regarding `CN1CCOC(COc2ccccc2-c2cc(Nc3cnc(C#N)cn3)no2)C1` (stereo not shown) [Compound 1.8, 5-(5-(2-((4-methylmorpholin-2-yl)methoxy)phenyl)isoxazol-3-ylamino) pyrazine-2-carbonitrile], in data set [1], the microsomal CLint at 1 μM was 202 µL/min/mg. In addition, on CHK-1 kinase, the inhibition at 0.03 µM is 51%, the inhibition at 0.3 µM was determined as 64% and the IC50 was determined as 76.6 nM. Moreover, the solubility (kinetic) at 1 h in data set [2] came to 32 µM (≈ 12.6 µg/mL). Also, the microsomal CLint at 1 μM in data set [3] came to 104 µL/min/mg. In addition, the microsomal CLint at 1 μM in data set [4] stood at 481 µL/min/mg.
With `CN1CC(Oc2ccccc2-c2cc(Nc3cnc(C#N)cn3)no2)C1` [Compound 1.10, 5-(5-(2-(1-methylazetidin-3-yloxy)phenyl)isoxazol-3-ylamino) pyrazine-2-carbonitrile], the microsomal CLint at 1 μM in data set [1] stood at 80 µL/min/mg; in data set [3], 49 µL/min/mg; in data set [4], 243 µL/min/mg. Moreover, the inhibition at 0.03 µM at CHK-1 kinase came to 44%. For the same compound, the inhibition at 0.3 µM on CHK-1 kinase was determined as 65%. In data set [2], this compound yielded a kinetic solubility at 1 h of 30.5 µM (≈ 10.6 µg/mL).
Turning to `COc1ccccc1-c1cc(Nc2cnc(C#N)cn2)no1` [Compound 1.11, 5-(5-(2-methoxyphenyl)isoxazol-3-ylamino) pyrazine-2-carbonitrile], the microsomal CLint at 1 μM worked out at 140 µL/min/mg in data set [1], 79 µL/min/mg in data set [3] and 382 µL/min/mg in data set [4]. The inhibition at 0.03 µM on CHK-1 kinase is 12%. At CHK-1 kinase, the inhibition at 0.3 µM amounted to 36%. This compound also returned a solubility (kinetic) at 1 h in data set [2] of 14 µM (≈ 4.11 µg/mL).
For the compound `CC(C)CC(C)N1CC(Oc2ccccc2-c2cc(Nc3cnc(C#N)cn3)no2)C1` (stereo not shown) [Compound 1.12, 5-(5-(2-(1-(4-methylpentan-2-yl)azetidin-3-yloxy)phenyl)isoxazol-3-ylamino) pyrazine-2-carbonitrile], the microsomal CLint at 1 μM in data set [1] came to 478 µL/min/mg; in data set [3], 266 µL/min/mg; in data set [4] it was 473 µL/min/mg. Also, the inhibition at 0.03 µM on CHK-1 kinase was 21%. On CHK-1 kinase, the inhibition at 0.3 µM was 30%. The same compound displayed a kinetic solubility at 1 h in data set [2] of 38.4 µM (≈ 16.1 µg/mL).
For `CC(C)N1CC(Oc2ccccc2-c2cc(Nc3cnc(C#N)cn3)no2)C1` [Compound 1.13, 5-(5-(2-(1-isopropylazetidin-3-yloxy)phenyl)isoxazol-3-ylamino) pyrazine-2-carbonitrile], the microsomal CLint at 1 μM in data set [1] is 86 µL/min/mg; in data set [3] it was 84 µL/min/mg; in data set [4], 221 µL/min/mg. On CHK-1 kinase, the inhibition at 0.03 µM stood at 15%. For the same compound, the inhibition at 0.3 µM at CHK-1 kinase came to 32%. The kinetic solubility at 1 h in data set [2] was 11.9 µM (≈ 4.48 µg/mL).
Regarding `N#Cc1cnc(Nc2cc(-c3ccccc3OC3CCNC3)on2)cn1` (stereo not shown) [Compound 1.14, 5-(5-(2-(pyrrolidin-3-yloxy)phenyl)isoxazol-3-ylamino) pyrazine-2-carbonitrile], the microsomal CLint at 1 μM amounted to 34 µL/min/mg in data set [1], 23 µL/min/mg in data set [3] and 56 µL/min/mg in data set [4]. In addition, at CHK-1 kinase, the inhibition at 0.03 µM turned out to be 37%. Moreover, on CHK-1 kinase, the inhibition at 0.3 µM was found to be 60%. The compound also displayed a solubility (kinetic) at 1 h in data set [2] of 39.6 µM (≈ 13.8 µg/mL).
Consider `N#Cc1cnc(Nc2cc(-c3ccccc3O[C@H]3CC[C@@H](N)CC3)on2)cn1` [Compound 1.15, 5-(5-(2-((1s,4s)-4-aminocyclohexyloxy)phenyl)isoxazol-3-ylamino) pyrazine-2-carbonitrile], for which the microsomal CLint at 1 μM was 12 µL/min/mg in data set [1], 33 µL/min/mg in data set [3] and 25 µL/min/mg in data set [4]. For the same compound, the inhibition at 0.03 µM at CHK-1 kinase amounted to 39%. In addition, at CHK-1 kinase, the inhibition at 0.3 µM was found to be 79%. This compound also showed a solubility (kinetic) at 1 h in data set [2] of 100 µM (≈ 37.6 µg/mL).
On to `CN1CCCC(COc2ccccc2-c2cc(Nc3cnc(C#N)cn3)no2)C1` (stereo not shown) [Compound 1.16, 5-(5-(2-((1-methylpiperidin-3-yl)methoxy)phenyl)isoxazol-3-ylamino) pyrazine-2-carbonitrile], for which the microsomal CLint at 1 μM turned out to be 117 µL/min/mg in data set [1], 138 µL/min/mg in data set [3] and 141 µL/min/mg in data set [4]. The inhibition at 0.03 µM at CHK-1 kinase was found to be 9%. In addition, the inhibition at 0.3 µM at CHK-1 kinase worked out at 75%. In data set [2], this compound gave a solubility (kinetic) at 1 h of 38.2 µM (≈ 14.9 µg/mL).
As to `N#Cc1cnc(Nc2cc(-c3ccccc3OCC3CNC3)on2)cn1` [Compound 1.17, 5-(5-(2-(azetidin-3-ylmethoxy)phenyl)isoxazol-3-ylamino) pyrazine-2-carbonitrile], the microsomal CLint at 1 μM in data set [1] is 26 µL/min/mg; in data set [3], 43 µL/min/mg; in data set [4], 50 µL/min/mg. The inhibition at 0.03 µM at CHK-1 kinase was 69%. Also, the inhibition at 0.3 µM on CHK-1 kinase was determined as 95%. This compound yielded a kinetic solubility at 1 h in data set [2] of 48 µM (≈ 16.7 µg/mL).
For `CCC(C)N1CC(Oc2ccccc2-c2cc(Nc3cnc(C#N)cn3)no2)C1` (stereo not shown) [Compound 1.18, 5-(5-(2-(1-sec-butyl-azetidin-3-yloxy)phen-yl)isoxazol-3-ylamino)-pyrazine-2-carbonitrile], the microsomal CLint at 1 μM in data set [1] stood at 145 µL/min/mg; in data set [3] it was 130 µL/min/mg; in data set [4], 297 µL/min/mg. Also, the inhibition at 0.03 µM on CHK-1 kinase is 4%. For the same compound, on CHK-1 kinase, the inhibition at 0.3 µM was 28%. Further, the kinetic solubility at 1 h in data set [2] came to 48 µM (≈ 18.7 µg/mL).
As to `N#Cc1cnc(Nc2cc(-c3ccccc3OC3CC(N)C3)on2)cn1` (stereo not shown) [Compound 1.20, 5-(5-(2-(3-aminocyclobutoxy)phenyl)isoxazol-3-ylamino) pyrazine-2-carbonitrile], the microsomal CLint at 1 μM in data set [1] came out at 47 µL/min/mg; in data set [3], 46 µL/min/mg; in data set [4], 86 µL/min/mg. The inhibition at 0.03 µM on CHK-1 kinase was found to be 60.2%. Further, the inhibition at 0.3 µM on CHK-1 kinase came to 91.9%. Besides, the solubility (kinetic) at 1 h in data set [2] is 29.4 µM (≈ 10.2 µg/mL).
Regarding `N#Cc1cnc(Nc2cc(-c3ccccc3OC3CC4(CNC4)C3)on2)cn1` [Compound 1.21, 5-(5-(2-(2-azaspiro[3.3]heptan-6-yloxy)phenyl)isoxazol-3-ylamino) pyrazine-2-carbonitrile], the microsomal CLint at 1 μM came to 20 µL/min/mg in data set [1], 37 µL/min/mg in data set [3] and 18 µL/min/mg in data set [4]. Besides, at CHK-1 kinase, the inhibition at 0.03 µM worked out at 78.7%. The inhibition at 0.3 µM on CHK-1 kinase amounted to 95.5%. The compound also came in with a solubility (kinetic) at 1 h in data set [2] of 18.8 µM (≈ 7.04 µg/mL).

The values above are taken from patent US20250346587A1, “NITROGEN-CONTAINING FIVE-MEMBERED HETEROCYCLIC DERIVATIVES AS CHECKPOINT KINASE 1 INHIBITOR AND USES THEREOF” (SPEROGENIX THERAPEUTICS LIMITED, priority 2022, published 2025).
